# Source: patent US12428415B2, “Matriptase 2 inhibitors and uses thereof” (Disc Medicine, Inc., priority 2018, dated 2025)
# Target: T1, Human Recombinant Matriptase 2 (Homo sapiens, UniProt Q8IU80)
# T1 construct: purchased Enzo Life Sciences (an in-house preparation was also used) ALX-201-752-1
# T1 sequence (Q8IU80 1-811): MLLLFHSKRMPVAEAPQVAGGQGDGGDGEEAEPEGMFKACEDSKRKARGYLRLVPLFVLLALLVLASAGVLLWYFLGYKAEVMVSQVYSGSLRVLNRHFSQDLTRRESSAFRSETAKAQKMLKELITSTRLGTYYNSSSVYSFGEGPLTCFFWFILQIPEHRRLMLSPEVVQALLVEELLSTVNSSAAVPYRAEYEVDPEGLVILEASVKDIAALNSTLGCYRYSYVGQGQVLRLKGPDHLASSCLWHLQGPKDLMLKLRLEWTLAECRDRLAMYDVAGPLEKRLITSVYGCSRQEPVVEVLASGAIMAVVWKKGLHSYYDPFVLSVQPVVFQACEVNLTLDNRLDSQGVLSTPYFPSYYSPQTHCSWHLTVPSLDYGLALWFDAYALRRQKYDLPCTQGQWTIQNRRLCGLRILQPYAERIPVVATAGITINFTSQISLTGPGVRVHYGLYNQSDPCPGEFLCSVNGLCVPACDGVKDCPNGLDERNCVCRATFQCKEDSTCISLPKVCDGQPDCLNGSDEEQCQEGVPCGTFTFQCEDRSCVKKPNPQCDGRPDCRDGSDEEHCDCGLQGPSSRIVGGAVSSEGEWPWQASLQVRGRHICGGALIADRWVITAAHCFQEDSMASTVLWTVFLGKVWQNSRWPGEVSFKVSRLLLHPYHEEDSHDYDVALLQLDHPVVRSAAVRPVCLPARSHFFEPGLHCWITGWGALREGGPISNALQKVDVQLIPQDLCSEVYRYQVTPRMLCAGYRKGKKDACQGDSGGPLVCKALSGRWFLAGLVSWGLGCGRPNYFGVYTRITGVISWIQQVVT
# Experiment: Matriptase 2 fluorescence based inhibition assay, Method B (50 mM TRIS pH 7.5, 150 mM NaCl, 0.01% gelatin)
# Type: biochemical
# Conditions: 1 uM compound; Assay Used = B; read-out: Mar-2 % inhibition at 1 uM
# Procedure: Test compounds were evaluated for their potential to inhibit Human Recombinant Matriptase 2 (in-house and commercial protein from Enzo Life Sciences—cat log -ALX-201-752-1) using fluorescence based assay. The concentration of Recombinant Matriptase 2 and the substrate used in the assay was: 7 nM (commercial) and 15 nM (Inhouse Matriptase 2) and 100 μM (Boc-Gln-Ala-Arg-7-amido-4-methyl coumarin hydrobromide—Cat log: B4153-Sigma and I-1550 from Bachem) respectively. The assay buffer used was 50 mM TRIS pH 7.5, 150 mM NaCl, 0.01% gelatin (G1393 Sigma). The assay was performed using 384 well black flat bottom plate from grenier (Cat log: 781076) at 25° C. The enzyme and compound preincubated for 30 mins, plate was read 60 mins after substrate addition at wavelength Ex: 360/Em:480 nm. The final assay volume of was 20 μl. Stock solution of compounds were initially prepared in DMSO and appropriate dilutions were made for screening and IC50 determination (final DMSO conc in the assay was 1%). All the measurements were carried out using the Spectramax M5, Molecular devices. The compounds were screened at 1 and 10 μM concentration and IC50 was determined for the interested compounds.
# To determine IC50 values, dose response curves were generated by plotting percentage inhibition as a function of inhibitor concentration and the data was fitted to sigmoidal non-linear regression equation (variable slope) using Graph Pad prism software V7.
row,SMILES,inhibition at 1 µM [%]
1,"N=C(N)c1ccc2cc(C(=O)NCC3CCNCC3)n(-c3ccc4ccccc4c3)c2c1 [Compound I-490, 6-carbamimidoyl-1-(naphthalen-2-yl)-N-(piperidin-4-ylmethyl)-1H-indole-2-carboxamide]",50 to 75
2,N=C(N)c1ccc2cc(C(=O)N[C@H]3CC[C@@H](N)CC3)n(-c3ccc4ccccc4c3)c2c1 [Compound I-491],50 to 75
3,"CC(C)(C)OC(=O)NC(=N)c1ccc2cc(C(=O)NCC3CCN(C(=O)OC(C)(C)C)CC3)n(Cc3cccc4ccccc34)c2c1 [Compound I-492, tert-butyl4-((6-(N-(tert-butoxycarbonyl)carbamimidoyl)-1-(naphthalen-1-ylmethyl)-1H-indole-2-carboxamido)methyl)piperidine-1-carboxylate]",25 to 50
4,CC(C)(C)OC(=O)NC(=N)c1ccc2cc(C(=O)NC3CCC(NC(=O)OC(C)(C)C)CC3)n(Cc3cccc(Cl)c3Cl)c2c1 (centres unmarked) [Compound I-493],0 to 25
5,CC(C)(C)OC(=O)NC(=N)c1ccc2cc(C(=O)N[C@H]3CC[C@H](NC(=O)OC(C)(C)C)CC3)n(Cc3ccnc4ccccc34)c2c1 [Compound I-494],0 to 25
6,CC(C)(C)OC(=O)NC(=N)c1ccc2cc(C(=O)N[C@H]3CC[C@H](NC(=O)OC(C)(C)C)CC3)n(Cc3ccc(C(N)=O)cc3)c2c1 [Compound I-495],0 to 25
7,"N=C(N)c1ccc2cc(C(=O)NCC3CCNCC3)[nH]c2c1 [Compound I-496, 6-carbamimidoyl-N-(piperidin-4-ylmethyl)-1H-indole-2-carboxamide]",0 to 25
8,"N=C(N)c1ccc2cc(C(=O)NCC3CCNCC3)n(Cc3cccc4ccccc34)c2c1 [Compound I-497, 6-carbamimidoyl-1-(naphthalen-1-ylmethyl)-N-(piperidin-4-ylmethyl)-1H-indole-2-carboxamide]",75 to 100
9,N=C(N)c1ccc2cc(C(=O)N[C@H]3CC[C@H](N)CC3)n(Cc3cccc(Cl)c3Cl)c2c1 [Compound I-498],25 to 50
10,N=C(N)c1ccc2cc(C(=O)N[C@H]3CC[C@H](N)CC3)n(Cc3ccnc4ccccc34)c2c1 [Compound I-499],50 to 75
11,N=C(N)c1ccc2cc(C(=O)N[C@H]3CC[C@H](N)CC3)n(Cc3ccc(C(N)=O)cc3)c2c1 [Compound I-500],25 to 50
12,N=C(N)c1ccc2cc(C(=O)N[C@H]3CC[C@H](N)CC3)n(CCS(=O)(=O)c3cccc4ccccc34)c2c1 [Compound I-501],0 to 25
13,N=C(N)c1ccc2cc(C(=O)N[C@H]3CC[C@H](N)CC3)n(C(C(=O)O)c3cccc4ccccc34)c2c1 (some centres unmarked) [Compound I-502],0 to 25
14,N=C(N)c1ccc2cc(C(=O)N[C@H]3CC[C@H](N)CC3)n(Cc3c(Cl)cccc3Cl)c2c1 [Compound I-503],0 to 25
15,"N=C(N)c1ccc2c(C(=O)O)c(C(=O)N[C@H]3CC[C@H](N)CC3)n(Cc3cccc4ccccc34)c2c1 [Compound I-512, 2-(((1r,4r)-4-aminocyclohexyl)carbamoyl)-6-carbamimidoyl-1-(naphthalen-1-ylmethyl)-1H-indole-3-carboxylic Acid]",50 to 75
16,"N=C(N)c1ccc2c(C(N)=O)c(C(=O)N[C@H]3CC[C@H](N)CC3)n(Cc3cccc4ccccc34)c2c1 [Compound I-513, N2-((1r,4r)-4-aminocyclohexyl)-6-carbamimidoyl-1-(naphthalen-1-ylmethyl)-1H-indole-2,3-dicarboxamide]",25 to 50
17,"N=C(N)c1ccc2c(C=O)c(C(=O)N[C@H]3CC[C@H](N)CC3)n(Cc3cccc4ccccc34)c2c1 [Compound I-515, N-((1r,4r)-4-aminocyclohexyl)-6-carbamimidoyl-3-formyl-1-(naphthalen-1-ylmethyl)-1H-indole-2-carboxamide]",25 to 50
18,"CC(C)(C)OC(=O)N[C@H]1CC[C@H](NC(=O)c2cn(Cc3cccc4ccccc34)c3cc(C(=N)N)ccc23)CC1 [Compound I-518, tert-butyl ((1r,4r)-4-(6-carbamimidoyl-1-(naphthalen-1-ylmethyl)-1H-indole-3-carboxamido)cyclohexyl) carbamate]",0 to 25
19,"N=C(N)c1ccc2c(C(=O)N[C@H]3CC[C@H](N)CC3)cn(Cc3cccc4ccccc34)c2c1 [Compound I-519, N-((1r,4r)-4-aminocyclohexyl)-6-carbamimidoyl-1-(naphthalen-1-ylmethyl)-1H-indole-3-carboxamide]",0 to 25
20,N=C(N)c1ccc2c(C(=O)N[C@H]3CC[C@H](N)CC3)cn(Cc3ccc4ccccc4c3)c2c1 [Compound I-520],0 to 25

# Other lines, results leading:
row,inhibition at 1 µM [%],SMILES
1,50 to 75,N=C(N)c1ccc2cc(C(=O)N[C@H]3CC[C@H](N)CC3)n(Cc3cccc4cnccc34)c2c1 [Compound I-504]
2,25 to 50,N=C(N)c1ccc2cc(C(=O)N[C@H]3CC[C@H](N)CC3)n(Cc3cc(Cl)cc(Cl)c3)c2c1 [Compound I-505]
3,75 to 100,COc1ccc2c(Cn3c(C(=O)N[C@H]4CC[C@H](N)CC4)cc4ccc(C(=N)N)cc43)cccc2c1 [Compound I-506]
4,50 to 75,N=C(N)c1ccc2cc(C(=O)N[C@H]3CC[C@H](N)CC3)n(Cc3cncc4ccccc34)c2c1 [Compound I-507]
5,25 to 50,N=C(N)c1ccc2cc(C(=O)N[C@H]3CC[C@H](N)CC3)n(Cc3ccc(C(=O)O)c4ccccc34)c2c1 [Compound I-508]
6,50 to 75,N=C(N)c1ccc2cc(C(=O)N[C@H]3CC[C@H](N)CC3)n(Cc3ccc(C(N)=O)c4ccccc34)c2c1 [Compound I-509]
7,0 to 25,N=C(N)c1ccc2cc(C(=O)N[C@H]3CC[C@H](N)CC3)n(Cc3ccccc3-c3ccccc3)c2c1 [Compound I-510]
8,75 to 100,"N=C(N)c1ccc2c(N)c(C(=O)N[C@H]3CC[C@H](N)CC3)n(Cc3cccc4ccccc34)c2c1 [Compound I-511, 3-amino-N-((1r,4r)-4-aminocyclohexyl)-6-carbamimidoyl-1-(naphthalen-1-ylmethyl)-1H-indole-2-carboxamide]"
9,0 to 25,"N#Cc1c(C(=O)N[C@H]2CC[C@H](N)CC2)n(Cc2cccc3ccccc23)c2cc(C(=N)N)ccc12 [Compound I-514, N-((1r,4r)-4-aminocyclohexyl)-6-carbamimidoyl-3-cyano-1-(naphthalen-1-ylmethyl)-1H-indole-2-carboxamide]"
10,0 to 25,"N=C(N)c1ccc2c(CO)c(C(=O)N[C@H]3CC[C@H](N)CC3)n(Cc3cccc4ccccc34)c2c1 [Compound I-516, N-((1r,4r)-4-aminocyclohexyl)-6-carbamimidoyl-3-(hydroxymethyl)-1-(naphthalen-1-ylmethyl)-1H-indole-2-carboxamide]"
11,50 to 75,"COCc1c(C(=O)N[C@H]2CC[C@H](N)CC2)n(Cc2cccc3ccccc23)c2cc(C(=N)N)ccc12 [Compound I-517, N-((1r,4r)-4-aminocyclohexyl)-6-carbamimidoyl-3-(methoxymethyl)-1-(naphthalen-1-ylmethyl)-1H-indole-2-carboxamide]"
12,50 to 75,"N=C(N)c1ccc2ccn(Cc3cccc4ccccc34)c2c1 [Compound I-521, 1-(naphthalen-1-ylmethyl)-1H-indole-6-carboximidamide]"
13,50 to 75,"N=C(N)c1ccc2cc(S(=O)(=O)N[C@H]3CC[C@H](N)CC3)n(Cc3cccc4ccccc34)c2c1 [Compound I-522, 2-(N-((1r,4r)-4-aminocyclohexyl)sulfamoyl)-1-(naphthalen-1-ylmethyl)-1H-indole-6-carboximidamide]"
14,0 to 25,N=C(N)c1ccc2cc(S(=O)(=O)N(Cc3cccc4ccccc34)[C@H]3CC[C@H](N)CC3)n(Cc3cccc4ccccc34)c2c1 [Compound I-523]
15,25 to 50,"CC(C)(C)OC(=O)N[C@H]1CC[C@H](c2nnc(-c3cc4ccc(C(=N)N)cc4n3Cc3cccc4ccccc34)o2)CC1 [Compound I-524, tert-butyl ((1r,4r)-4-(5-(6-carbamimidoyl-1-(naphthalen-1-ylmethyl)-1H-indol-2-yl)-1,3,4-oxadiazol-2-yl)cyclohexyl)carbamate]"
